Patent US20090233937A1 (TAKEDA PHARMACEUTICAL COMPANY LIMITED, priority 2008, published 2009)

Target: T1, HER2 kinase (HER2 intracellular domain) (Homo sapiens, UniProt P04626)
T1 construct: made in house; host or cells: SF-21 insect cells infected with recombinant baculovirus BAC-HER2
Experiment: Determination of HER2 kinase inhibitory activity
Format: biochemical
Parameters: concentration or dose not given beside the values
Settings: compound at 1.0 μL (so in the source), [γ-32P]ATP, poly-Glu:Tyr (4:1) substrate
Description: Human HER2 gene was cloned by RT-PCR using total RNA prepared from MCF7 cells as a template. The primer used for RT-PCR was prepared in consideration of the information of nucleotide sequence (Genbank Accession No. M11730) of HER2 gene by adding a nucleotide sequence encoding DYKDDDD peptide and a restriction enzyme recognition sequence to a nucleotide sequence (corresponding to 2176-3918 of Genbank Accession No. M11730 as a base, 676-1255 amino acids of Genbank Accession No. NP_004439 as a protein) encoding the HER2 intracellular domain region such that the protein contains an N-terminal DYKDDDD peptide tag. The primer nucleotide sequence is shown below.
(§1) SF-21 cells were sown at 1×10^6 cells/mL in Sf-900II SFM medium (1 L, Invitrogen) containing 10% fetal bovine serum (trace), 50 mg/L gentamicin (Invitrogen) and 0.1% Pluronic F-68 (Invitrogen), and shaking culture was performed using a 2 L volume Erlenmeyer flask at 27° C., 100 rpm. After culturing for 24 hr, recombinant baculovirus BAC-HER2 (13.4 mL) was added, and the mixture was further cultured for 3 days. The culture medium was centrifuged at 2,000 rpm for 5 min to give virus-infected cells. The infected cells were washed with a phosphate buffered saline (Invitrogen), centrifuged under the same conditions, and the cells were preserved at −80° C. The cryopreserved cells were thawed in ice, suspended in buffer A (50 mM Tris buffer (30 mL, pH 7.4) containing 20% glycerol, 0.15 M NaCl) supplemented with Complete Protease Inhibitor (Boehringer), and ruptured 3 times with a Polytron homogenizer (Kinematica) at 20,000 rpm for 30 sec. The ruptured solution was clarified by centrifugation at 40,000 rpm for 30 min, and filtered with a 0.45 μm filter. The filtrate was passed through a column packed with Anti-FLAG M2 Affinity Gel (4 mL, Sigma-Aldrich) at a flow rate of about 0.5 mL/min. The column was washed with buffer A, and eluted with buffer A containing 100 μg/mL of FLAG peptide. The eluent was concentrated with Vivaspin 20 (Vivascience) having a molecular weight cut off of 30K. The concentrate was purified by gel filtration using Hi Load 16/60 Superdex 200 pg (GE Healthcare Bioscience) equilibrated with buffer A. The fractions containing HER2 intracellular domain were collected and cryopreserved at −80° C.
HER2 kinase reaction was performed using a 96 well plate. As a buffer for kinase reaction, a buffer having a composition of 50 mM Tris-HCl (pH 7.5), 5 mM MnCl2, 2 mM dithiothreitol, 0.01% Tween-20 was used. The compound of the present invention was dissolved in dimethyl sulfoxide (DMSO), and diluted with the kinase reaction buffer so that DMSO concentration would be 0.1% during kinase reaction. This compound solution (10 μL) was mixed with a kinase reaction buffer (20 μL) containing HER2 intracellular domain (0.625 μg/mL) obtained in Experimental Example 1B and polypeptide substrate poly-Glu:Tyr (4:1) (Sigma Ltd., 12.5 μg/mL), and the mixture was stood at room temperature for 5 min. Then, a kinase reaction buffer (20 μL) containing 125 μM ATP and 45 μCi/mL [γ-^32P]ATP was added, and the kinase reaction was initiated with 50 μL of the final reaction mixture. A kinase reaction was performed at room temperature for 10 min, and the kinase reaction was quenched by addition of 20% TCA solution (50 μL). The mixture after completion of the reaction was stood at room temperature for 30 min, and acid insoluble fractions in the mixture after completion of the reaction were collected in a 96 well GF/C filter plate (PerkinElmer) using a cell harvester (PerkinElmer). Thereafter, the filter containing the acid insoluble fractions was washed with 3% phosphoric acid solution. After washing, the filter plate was dried at 45° C. for 60 min, and 25 μL of MicroScinti 0 (PerkinElmer) was added. The radioactivity was measured using TopCount (PerkinElmer). HER2 kinase inhibitory rate (%) of the test compound was calculated by the following formula: […]

T1 sequence (P04626 676-1255): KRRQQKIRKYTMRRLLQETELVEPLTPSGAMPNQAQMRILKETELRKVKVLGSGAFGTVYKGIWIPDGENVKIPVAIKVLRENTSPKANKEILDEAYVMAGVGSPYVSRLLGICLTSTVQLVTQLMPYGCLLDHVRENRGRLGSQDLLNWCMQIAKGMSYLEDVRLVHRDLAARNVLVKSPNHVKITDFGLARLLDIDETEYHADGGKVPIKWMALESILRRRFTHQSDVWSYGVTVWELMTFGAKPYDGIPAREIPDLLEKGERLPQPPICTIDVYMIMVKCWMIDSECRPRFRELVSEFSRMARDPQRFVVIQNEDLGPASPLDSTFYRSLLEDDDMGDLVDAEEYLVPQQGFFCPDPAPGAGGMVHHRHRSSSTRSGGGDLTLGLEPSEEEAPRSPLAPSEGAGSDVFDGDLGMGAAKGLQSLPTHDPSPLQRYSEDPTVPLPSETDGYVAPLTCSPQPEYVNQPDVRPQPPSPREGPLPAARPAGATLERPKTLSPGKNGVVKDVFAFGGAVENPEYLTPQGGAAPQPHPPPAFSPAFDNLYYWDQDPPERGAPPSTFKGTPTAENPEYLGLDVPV

SMILES | inhibitory rate (%) at 1.0 μL [%]
Cl.Cn1c(Cl)cc2ncnc(Nc3ccc(Oc4cccc5sncc45)c(Cl)c3)c21 [Example 2, N-[4-(1,2-benzoisothiazol-4-yloxy)-3-chlorophenyl]-6-chloro-5-methyl-5H-pyrrolo[3,2-d]pyrimidin-4-amine hydrochloride] | 100
CC(=O)NCCn1ccc2ncnc(Nc3ccc(Oc4cccc5sncc45)c(Cl)c3)c21 [Example 4, N-[2-(4-{[4-(1,2-benzoisothiazol-4-yloxy)-3-chlorophenyl]amino}-5H-pyrrolo[3,2-d]pyrimidin-5-yl)ethyl]acetamide] | 100
Clc1cc(N2CCn3ccc4ncnc2c43)ccc1Oc1cccc2sncc12 [Example 13, 4-[4-(1,2-benzoisothiazol-4-yloxy)-3-chlorophenyl]-5,6-dihydro-4H-pyrrolo[3,2,1-de]pteridine] | 100
OCCn1ccc2ncnc(Nc3ccc(Oc4ccc5cnsc5c4)c(Cl)c3)c21 [Example 20, 2-(4-{[4-(1,2-benzoisothiazol-6-yloxy)-3-chlorophenyl]amino}-5H-pyrrolo[3,2-d]pyrimidin-5-yl)ethanol] | 98
Cc1cc(Nc2ncnc3ccn(CCO)c23)ccc1Oc1cccc2sncc12 [Example 31, 2-(4-{[4-(1,2-benzoisothiazol-4-yloxy)-3-methylphenyl]amino}-5H-pyrrolo[3,2-d]pyrimidin-5-yl)ethanol] | 100
COc1cc(Nc2ncnc3ccn(CCO)c23)ccc1Oc1cccc2sncc12 [Example 44, 2-(4-{[4-(1,2-benzoisothiazol-4-yloxy)-3-methoxyphenyl]amino}-5H-pyrrolo[3,2-d]pyrimidin-5-yl)ethanol] | 98
CC(C)(CO)C(=O)NCCn1ccc2ncnc(Nc3cc(F)c(Oc4cccc5sncc45)c(Cl)c3)c21 [Example 52, N-[2-(4-{[4-(1,2-benzoisothiazol-4-yloxy)-3-chloro-5-fluorophenyl]amino}-5H-pyrrolo[3,2-d]pyrimidin-5-yl)ethyl]-3-hydroxy-2,2-dimethylpropanamide] | 99
CC(C)(N)C(=O)NCCn1ccc2ncnc(Nc3ccc(Oc4cccc5sncc45)c(Cl)c3)c21 [Example 60, N-[2-(4-{[4-(1,2-benzoisothiazol-4-yloxy)-3-chlorophenyl]amino}-5H-pyrrolo[3,2-d]pyrimidin-5-yl)ethyl]-2-methylalaninamide] | 100

Target: T2, EGFR kinase (EGFR intracellular domain) (Homo sapiens, UniProt P00533)
T2 construct: made in house; host or cells: SF-21 insect cells infected with recombinant baculovirus BAC-EGFR
T2 sequence (P00533 669-1210): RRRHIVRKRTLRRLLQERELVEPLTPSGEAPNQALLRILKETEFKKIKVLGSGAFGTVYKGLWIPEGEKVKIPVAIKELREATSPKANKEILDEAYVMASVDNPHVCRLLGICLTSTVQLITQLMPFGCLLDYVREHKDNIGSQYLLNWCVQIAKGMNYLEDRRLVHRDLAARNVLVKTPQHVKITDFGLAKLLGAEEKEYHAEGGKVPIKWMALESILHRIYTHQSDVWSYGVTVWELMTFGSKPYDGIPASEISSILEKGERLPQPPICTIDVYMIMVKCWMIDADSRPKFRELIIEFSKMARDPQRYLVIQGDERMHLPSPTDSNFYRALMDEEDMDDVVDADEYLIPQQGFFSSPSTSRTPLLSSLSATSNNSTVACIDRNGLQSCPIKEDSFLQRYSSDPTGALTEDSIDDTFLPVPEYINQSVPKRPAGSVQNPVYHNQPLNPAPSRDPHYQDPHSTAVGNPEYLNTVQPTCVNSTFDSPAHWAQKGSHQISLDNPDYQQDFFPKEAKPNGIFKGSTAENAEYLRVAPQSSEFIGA
Experiment: Determination of EGFR kinase inhibitory activity
Format: biochemical
Parameters: concentration or dose not given beside the values
Settings: compound at 1.0 μL (so in the source), [γ-32P]ATP, poly-Glu:Tyr (4:1) substrate
Description: Human EGFR gene was cloned by RT-PCR using total RNA prepared from A431 cells as a template. The primer used for RT-PCR was prepared in consideration of the information of nucleotide sequence (Genbank Accession No. X00588) of EGFR gene by adding a nucleotide sequence encoding DYKDDDD peptide and a restriction enzyme recognition sequence to a nucleotide sequence (corresponding to 2191-3819 of Genbank Accession No. X00588 as a base, 669-1210 amino acids of Genbank Accession No. NP_005219 as a protein) encoding the EGFR intracellular domain region such that the protein contains an N-terminal DYKDDDD peptide tag. The primer nucleotide sequence is shown below.
as §1, with “hrs,” for “hr,”, “BAC-EGFR” for “BAC-HER2”, “EGFR” for “HER2”
EGFR kinase reaction was performed using a 96 well plate. As a buffer for kinase reaction, a buffer having a composition of 50 mM Tris-HCl (pH 7.5), 5 mM MnCl2, 2 mM dithiothreitol, 0.01% Tween-20 was used. The compound of the present invention was dissolved in dimethyl sulfoxide (DMSO), and diluted with the kinase reaction buffer so that DMSO concentration would be 0.1% during kinase reaction. This compound solution (10 μL) was mixed with a kinase reaction buffer (20 μL) containing EGFR intracellular domain (0.625 μg/mL) obtained in Experimental Example 2B and polypeptide substrate poly-Glu:Tyr (4:1) (Sigma Ltd., 12.5 μg/mL), and the mixture was stood at room temperature for 5 min. […] A kinase reaction was performed at room temperature for 10 min, and the kinase reaction was quenched by addition of 20% TCA solution (50 μL). The mixture after completion of the reaction was stood at room temperature for 30 min, and acid insoluble fractions in the mixture after completion of the reaction were collected in a 96 well GF/C filter plate (PerkinElmer) using a cell harvester (PerkinElmer). Thereafter, the filter containing the acid insoluble fractions was washed with 3% phosphoric acid solution. After washing, the filter plate was dried at 45° C. for 60 min, and 25 μL of MicroScinti 0 (PerkinElmer) was added. The radioactivity was measured using TopCount (PerkinElmer). EGFR kinase inhibitory rate (%) of the test compound was calculated by the following formula:
Inhibitory rate (%)=(1−(count of test compound−blank)÷(control−blank))×100

SMILES | inhibitory rate (%) at 1.0 μL [%]
Cn1ccc2ncnc(Nc3ccc(Oc4cccc5sncc45)c(Cl)c3)c21 [Example 1, N-[4-(1,2-benzoisothiazol-4-yloxy)-3-chlorophenyl]-5-methyl-5H-pyrrolo[3,2-d]pyrimidin-4-amine] | 99
CC(C)(CO)C(=O)NCCn1ccc2ncnc(Nc3ccc(Oc4cccc5sncc45)c(Cl)c3)c21 [Example 10, N-[2-(4-{[4-(1,2-benzoisothiazol-4-yloxy)-3-chlorophenyl]amino}-5H-pyrrolo[3,2-d]pyrimidin-5-yl)ethyl]-3-hydroxy-2,2-dimethylpropanamide] | 98
CC(=O)NCCn1ccc2ncnc(Nc3ccc(Oc4cccc5nscc45)c(Cl)c3)c21 [Example 12, N-[2-(4-{[4-(2,1-benzoisothiazol-4-yloxy)-3-chlorophenyl]amino}-5H-pyrrolo[3,2-d]pyrimidin-5-yl)ethyl]acetamide] | 95
CS(=O)(=O)CC(=O)NCCn1ccc2ncnc(Nc3ccc(Oc4cccc5sncc45)c(Cl)c3)c21.CS(=O)(=O)O [Example 24, N-[2-(4-{[4-(1,2-benzoisothiazol-4-yloxy)-3-chlorophenyl]amino}-5H-pyrrolo[3,2-d]pyrimidin-5-yl)ethyl]-2-(methylsulfonyl)acetamide methanesulfonate] | 100
OCCn1ccc2ncnc(Nc3ccc(Oc4cccc5sncc45)c(Br)c3)c21 [Example 45] | 99
CC(C)(N)CC(=O)NCCn1ccc2ncnc(Nc3ccc(Oc4cccc5sncc45)c(Cl)c3)c21 [Example 62, 3-amino-N-[2-(4-{[4-(1,2-benzoisothiazol-4-yloxy)-3-chlorophenyl]amino}-5H-pyrrolo[3,2-d]pyrimidin-5-yl)ethyl]-3-methylbutanamide] | 99
